Reference: the NIST ThermoML archive (doi:10.1016/j.jct.2016.08.004)
Numbers after ± are expanded uncertainties.

Experiment: mn = molality of the nth substance listed, in mol/kg
Settings: 101 kPa, Liquid; for viscosity: Capillary tube (Ostwald / Ubbelohde) method; for mass density: Vibrating tube method

SMILES: Cc1ncc(CO)c(CO)c1O.Cl [5-hydroxy-6-methyl-3,4-pyridinedimethanol hydrochloride] + O
- viscosity (288.15 K, m1 = 0.0202): 1.145 ± 0.022 mPa·s
- viscosity (288.15 K, m1 = 0.0365): 1.151 ± 0.022 mPa·s
- viscosity (288.15 K, m1 = 0.0529): 1.157 ± 0.022 mPa·s
- viscosity (288.15 K, m1 = 0.0695): 1.163 ± 0.022 mPa·s
- viscosity (288.15 K, m1 = 0.0863): 1.169 ± 0.022 mPa·s
- viscosity (288.15 K, m1 = 0.1032): 1.175 ± 0.022 mPa·s
- mass density (288.15 K, m1 = 0.0202): 1000.32 ± 1.1 kg/m3
- mass density (288.15 K, m1 = 0.0365): 1001.26 ± 1.1 kg/m3
- mass density (288.15 K, m1 = 0.0529): 1002.19 ± 1.1 kg/m3
- mass density (288.15 K, m1 = 0.0695): 1003.11 ± 1.1 kg/m3
- mass density (288.15 K, m1 = 0.0863): 1003.98 ± 1.1 kg/m3
- mass density (288.15 K, m1 = 0.1032): 1004.86 ± 1.1 kg/m3
- viscosity (298.15 K, m1 = 0.0202): 0.8984 ± 0.021 mPa·s
- viscosity (298.15 K, m1 = 0.0365): 0.9043 ± 0.021 mPa·s
- viscosity (298.15 K, m1 = 0.0529): 0.9103 ± 0.021 mPa·s
- viscosity (298.15 K, m1 = 0.0695): 0.9163 ± 0.021 mPa·s
- viscosity (298.15 K, m1 = 0.0863): 0.9224 ± 0.022 mPa·s
- viscosity (298.15 K, m1 = 0.1032): 0.9286 ± 0.022 mPa·s
- mass density (298.15 K, m1 = 0.0202): 998.28 ± 1.1 kg/m3
- mass density (298.15 K, m1 = 0.0365): 999.22 ± 1.1 kg/m3
- mass density (298.15 K, m1 = 0.0529): 1000.15 ± 1.1 kg/m3
- mass density (298.15 K, m1 = 0.0695): 1001.07 ± 1.1 kg/m3
- mass density (298.15 K, m1 = 0.0863): 1001.99 ± 1.1 kg/m3
- mass density (298.15 K, m1 = 0.1032): 1002.9 ± 1.1 kg/m3
- viscosity (308.15 K, m1 = 0.0202): 0.7266 ± 0.021 mPa·s
- viscosity (308.15 K, m1 = 0.0365): 0.7312 ± 0.021 mPa·s
- viscosity (308.15 K, m1 = 0.0529): 0.7358 ± 0.021 mPa·s
- viscosity (308.15 K, m1 = 0.0695): 0.7404 ± 0.021 mPa·s
- viscosity (308.15 K, m1 = 0.0863): 0.7451 ± 0.021 mPa·s
- viscosity (308.15 K, m1 = 0.1032): 0.7498 ± 0.021 mPa·s
- mass density (308.15 K, m1 = 0.0202): 995.25 ± 1.1 kg/m3
- mass density (308.15 K, m1 = 0.0365): 996.18 ± 1.1 kg/m3
- mass density (308.15 K, m1 = 0.0529): 997.09 ± 1.1 kg/m3
- mass density (308.15 K, m1 = 0.0695): 997.99 ± 1.1 kg/m3
- mass density (308.15 K, m1 = 0.0863): 998.89 ± 1.1 kg/m3
- mass density (308.15 K, m1 = 0.1032): 999.78 ± 1.1 kg/m3
- viscosity (318.15 K, m1 = 0.0202): 0.6009 ± 0.021 mPa·s
- viscosity (318.15 K, m1 = 0.0365): 0.6048 ± 0.021 mPa·s
- viscosity (318.15 K, m1 = 0.0529): 0.6087 ± 0.021 mPa·s
- viscosity (318.15 K, m1 = 0.0695): 0.6127 ± 0.021 mPa·s
- viscosity (318.15 K, m1 = 0.0863): 0.6168 ± 0.021 mPa·s
- viscosity (318.15 K, m1 = 0.1032): 0.6209 ± 0.021 mPa·s
- mass density (318.15 K, m1 = 0.0202): 991.43 ± 1.1 kg/m3
- mass density (318.15 K, m1 = 0.0365): 992.35 ± 1.1 kg/m3
- mass density (318.15 K, m1 = 0.0529): 993.26 ± 1.1 kg/m3
- mass density (318.15 K, m1 = 0.0695): 994.16 ± 1.1 kg/m3
- mass density (318.15 K, m1 = 0.0863): 995.06 ± 1.1 kg/m3
- mass density (318.15 K, m1 = 0.1032): 995.96 ± 1.1 kg/m3
